Data published in ChEMBL document CHEMBL1135340, “Efficient liquid-phase synthesis of 2'-hydroxychalcones” (Bioorg Med Chem Lett, 2002).

System: MCF7
Test: Cytotoxic concentration against MCF-7 cells was determined
Format: functional, cell-based
Settings: Homo sapiens

## O=C(/C=C/c1ccc(Br)cc1)c1ccccc1O
  IC50: 12.3 µM
